Test results reported in PubChem BioAssay AID1963837 (Molecular Pharmacology Branch, DTP, NCI, 2024).
pIC50: −log10 of the molar value.

System: 843126-344-R-J1-PDC complex spheroid viability
Experiment: Anticancer human tumor 843126-344-R-J1-PDC patient-derived melanoma cell line growth inhibition [POLQ]
Conditions: for pIC50: curve of first compound; for viability, T/C: stronger effect = lower value
Method in brief: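 Growth inhibition in 3D: complex spheroids (tumor PDC, HUVEC, MSC) treated with POLQ inhibitor combinations; where Cmax unknown, highest tested concentration 10 microM, except SN-38 at 1 microM.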

[1] = second compound 0.0316 µM, first compound 0.0316 µM
[2] = second compound 0.0316 µM, first compound 0.1 µM
[3] = second compound 0.0316 µM, first compound 0.316 µM
[4] = second compound 0.0316 µM, first compound 1 µM
[5] = second compound 0.0316 µM, first compound 3.16 µM
[6] = second compound 0.0316 µM, first compound 10 µM
[7] = second compound 0.1 µM, first compound 0.0316 µM
[8] = second compound 0.1 µM, first compound 0.1 µM
[9] = second compound 0.1 µM, first compound 0.316 µM
[10] = second compound 0.1 µM, first compound 1 µM
[11] = second compound 0.1 µM, first compound 3.16 µM
[12] = second compound 0.1 µM, first compound 10 µM
[13] = second compound 0.316 µM, first compound 0.0316 µM
[14] = second compound 0.316 µM, first compound 0.1 µM
[15] = second compound 0.316 µM, first compound 0.316 µM
[16] = second compound 0.316 µM, first compound 1 µM
[17] = second compound 0.316 µM, first compound 3.16 µM
[18] = second compound 0.316 µM, first compound 10 µM
[19] = second compound 1 µM, first compound 0.0316 µM
[20] = second compound 1 µM, first compound 0.1 µM
[21] = second compound 1 µM, first compound 0.316 µM
[22] = second compound 1 µM, first compound 1 µM
[23] = second compound 1 µM, first compound 3.16 µM
[24] = second compound 1 µM, first compound 10 µM
[25] = second compound 3.16 µM, first compound 0.0316 µM
[26] = second compound 3.16 µM, first compound 0.1 µM
[27] = second compound 3.16 µM, first compound 0.316 µM
[28] = second compound 3.16 µM, first compound 1 µM
[29] = second compound 3.16 µM, first compound 3.16 µM
[30] = second compound 3.16 µM, first compound 10 µM
[31] = second compound 10 µM, first compound 0.0316 µM
[32] = second compound 10 µM, first compound 0.1 µM
[33] = second compound 10 µM, first compound 0.316 µM
[34] = second compound 10 µM, first compound 1 µM
[35] = second compound 10 µM, first compound 3.16 µM
[36] = second compound 10 µM, first compound 10 µM
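Wherever viability, T/C is given: spheroids exposed to drugs for seven days before readout.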

CC1COCCN1c1cc(C2(O)CC3CCC(C2)O3)c2cnn(-c3ccn[nH]3)c2n1 (stereo unspecified) + Cc1cccc(N(C)C(=O)C2C(O)CCN2c2nc(C)cc(C(F)(F)F)c2C#N)c1
pIC50 (second compound 0.0316 µM): 6.31
pIC50 (second compound 0.1 µM): 6.33
pIC50 (second compound 0.316 µM): 6.24
pIC50 (second compound 1 µM): 6.41
pIC50 (second compound 3.16 µM): 6.19
pIC50 (second compound 10 µM): 6.12
viability, T/C [1]: 95.7%
viability, T/C [2]: 78.6%
viability, T/C [3]: 48.2%
viability, T/C [4]: 44.8%
viability, T/C [5]: 31%
viability, T/C [6]: 20.7%
viability, T/C [7]: 84.6%
viability, T/C [8]: 66%
viability, T/C [9]: 58.5%
viability, T/C [10]: 40.1%
viability, T/C [11]: 28.5%
viability, T/C [12]: 22.2%
viability, T/C [13]: 85.6%
viability, T/C [14]: 74.9%
viability, T/C [15]: 51.3%
viability, T/C [16]: 45.2%
viability, T/C [17]: 34%
viability, T/C [18]: 19.2%
viability, T/C [19]: 99.3%
viability, T/C [20]: 62.8%
viability, T/C [21]: 56.9%
viability, T/C [22]: 40.8%
viability, T/C [23]: 32.7%
viability, T/C [24]: 21%
viability, T/C [25]: 91.2%
viability, T/C [26]: 80.5%
viability, T/C [27]: 51.5%
viability, T/C [28]: 47.5%
viability, T/C [29]: 33.2%
viability, T/C [30]: 20.6%
viability, T/C [31]: 87.7%
viability, T/C [32]: 82.8%
viability, T/C [33]: 63.8%
viability, T/C [34]: 45.2%
viability, T/C [35]: 29.3%
viability, T/C [36]: 17.7%

CC(=O)O[C@H]1C(=O)[C@@]2(C)[C@H]([C@H](OC(=O)c3ccccc3)[C@]3(O)C[C@H](OC(=O)[C@H](O)[C@@H](NC(=O)c4ccccc4)c4ccccc4)C(C)=C1C3(C)C)[C@]1(OC(C)=O)CO[C@@H]1C[C@@H]2O + COC1C(OC(N)=O)C(O)C(Oc2ccc3c(O)c(NC(=O)c4ccc(O)c(CC=C(C)C)c4)c(=O)oc3c2C)OC1(C)C
pIC50 (second compound 0.0316 µM): < 5.52
pIC50 (second compound 0.1 µM): < 5.52
pIC50 (second compound 0.316 µM): < 5.52
pIC50 (second compound 1 µM): < 5.52
pIC50 (second compound 3.16 µM): < 5.52
pIC50 (second compound 10 µM): < 5.52
viability, T/C (second compound 0.0316 µM, first compound 0.00949 µM): 55.4%
viability, T/C (second compound 0.0316 µM, first compound 0.03 µM): 70%
viability, T/C (second compound 0.0316 µM, first compound 0.0949 µM): 56%
viability, T/C (second compound 0.0316 µM, first compound 0.3 µM): 69.8%
viability, T/C (second compound 0.0316 µM, first compound 0.949 µM): 61.2%
viability, T/C (second compound 0.0316 µM, first compound 3 µM): 68.9%
viability, T/C (second compound 0.1 µM, first compound 0.00949 µM): 63.9%
viability, T/C (second compound 0.1 µM, first compound 0.03 µM): 60.9%
viability, T/C (second compound 0.1 µM, first compound 0.0949 µM): 49.1%
viability, T/C (second compound 0.1 µM, first compound 0.3 µM): 55.3%
viability, T/C (second compound 0.1 µM, first compound 0.949 µM): 55.5%
viability, T/C (second compound 0.1 µM, first compound 3 µM): 57.5%
viability, T/C (second compound 0.316 µM, first compound 0.00949 µM): 55.6%
viability, T/C (second compound 0.316 µM, first compound 0.03 µM): 64.6%
viability, T/C (second compound 0.316 µM, first compound 0.0949 µM): 65.5%
viability, T/C (second compound 0.316 µM, first compound 0.3 µM): 57.1%
viability, T/C (second compound 0.316 µM, first compound 0.949 µM): 55.7%
viability, T/C (second compound 0.316 µM, first compound 3 µM): 61.1%
viability, T/C (second compound 1 µM, first compound 0.00949 µM): 60.2%
viability, T/C (second compound 1 µM, first compound 0.03 µM): 59.8%
viability, T/C (second compound 1 µM, first compound 0.0949 µM): 61.6%
viability, T/C (second compound 1 µM, first compound 0.3 µM): 60.4%
viability, T/C (second compound 1 µM, first compound 0.949 µM): 52.5%
viability, T/C (second compound 1 µM, first compound 3 µM): 52.1%
viability, T/C (second compound 3.16 µM, first compound 0.00949 µM): 63.6%
viability, T/C (second compound 3.16 µM, first compound 0.03 µM): 62.2%
viability, T/C (second compound 3.16 µM, first compound 0.0949 µM): 53.8%
viability, T/C (second compound 3.16 µM, first compound 0.3 µM): 57.2%
viability, T/C (second compound 3.16 µM, first compound 0.949 µM): 60.7%
viability, T/C (second compound 3.16 µM, first compound 3 µM): 50.9%
viability, T/C (second compound 10 µM, first compound 0.00949 µM): 65.4%
viability, T/C (second compound 10 µM, first compound 0.03 µM): 55.8%
viability, T/C (second compound 10 µM, first compound 0.0949 µM): 52.9%
viability, T/C (second compound 10 µM, first compound 0.3 µM): 54.6%
viability, T/C (second compound 10 µM, first compound 0.949 µM): 66.1%
viability, T/C (second compound 10 µM, first compound 3 µM): 57.1%

O=C(Nc1ccc(O)c(NS(=O)(=O)c2ccc(F)cc2)c1)c1ccc(-c2ccccc2)cc1 + COC1C(OC(N)=O)C(O)C(Oc2ccc3c(O)c(NC(=O)c4ccc(O)c(CC=C(C)C)c4)c(=O)oc3c2C)OC1(C)C
pIC50 (second compound 0.0316 µM): < 5.00
pIC50 (second compound 0.1 µM): < 5.00
pIC50 (second compound 0.316 µM): < 5.00
pIC50 (second compound 1 µM): < 5.00
pIC50 (second compound 3.16 µM): < 5.00
pIC50 (second compound 10 µM): < 5.00
viability, T/C [1]: 118%
viability, T/C [2]: 105%
viability, T/C [3]: 100%
viability, T/C [4]: 119%
viability, T/C [5]: 99%
viability, T/C [6]: 69.4%
viability, T/C [7]: 94.3%
viability, T/C [8]: 93.8%
viability, T/C [9]: 119%
viability, T/C [10]: 99.6%
viability, T/C [11]: 87.9%
viability, T/C [12]: 61.9%
viability, T/C [13]: 92.8%
viability, T/C [14]: 98.3%
viability, T/C [15]: 113%
viability, T/C [16]: 95.5%
viability, T/C [17]: 91.8%
viability, T/C [18]: 73.1%
viability, T/C [19]: 90.9%
viability, T/C [20]: 85.3%
viability, T/C [21]: 91.9%
viability, T/C [22]: 98.9%
viability, T/C [23]: 112%
viability, T/C [24]: 89.3%
viability, T/C [25]: 95.5%
viability, T/C [26]: 93.9%
viability, T/C [27]: 92.9%
viability, T/C [28]: 93.8%
viability, T/C [29]: 89.4%
viability, T/C [30]: 76.3%
viability, T/C [31]: 82.6%
viability, T/C [32]: 78.8%
viability, T/C [33]: 97.1%
viability, T/C [34]: 94.5%
viability, T/C [35]: 86.8%
viability, T/C [36]: 79.7%
